These results are taken from patent US11890316B2, “Oral octreotide therapy and contraceptive methods” (Amryt Endo, Inc., priority 2020, dated 2024).

Data set [1] in a line: clinical. The conditions noted are these: for Cmax, least squares geometric mean, Test / Cmax, least squares geometric mean, Reference: co-administered with HCTZ and metformin, in ng/mL; for effect of oral octreotide on the exposure to the probe drug (Cmax and AUC0-5): single 40 mg oral octreotide acetate vs placebo, first 5 h after dosing. From the text:
This was a single-center, randomized, single-blind, placebo-controlled, crossover design study in healthy male and female subjects.
Eligible subjects were randomized in a 1:1 ratio to one of two treatment sequences of test conditions (i.e., Group 1 or Group 2); females were studied under 4 test conditions (A to D), whereas males were studied under 2 test conditions only (A and B), as shown in Table 1.
The study comprised a screening period, 4 treatment (dosing) periods for females and 2 treatment periods for males, and a follow-up period (approximately 7-10 days following the last dosing). There was a washout period of at least 14 days between dosing events.
The effect of […] on the absorption of estradiol was assessed by comparing Test Conditions C and D in up to 14 females. Blood sampling was conducted over the first 5 hours after administration.
Confidence intervals (Cis) (90%) were constructed for the geometric mean rations (GMRs) (probe drug+oral octreotide to probe drug alone) of the 2 parameters using the natural log-transformed data and the 2 one-sided t-tests procedure. The GMRs and CIs were exponentiated back to the original scale. The effect of concurrent administration of oral octreotide was assessed from the GMRs and 90% Cis. The discrete parameter Tmax was compared among treatments using non-parametric analyses.

Data set [2] in a line: clinical. The conditions noted are these: female, human, in vivo, po.
Setting [3] is: both, human, in vivo, po, 850 mg.
[4] abbreviates: R-warfarin with oral octreotide vs R-warfarin with placebo.
Where [5] appears, read: both, human, in vivo, po, 100 mg.
Where [6] appears, read: S-warfarin with oral octreotide vs S-warfarin with placebo.

Take `CN(C)C(=N)N=C(N)N` [Metformin, metformin]: in the data set “clinical [1]” (setting [3]), the AUC(0-t) (in general, the area under the concentration-time curve up to a stated or last time point) was found to be 5500 ± 1280 ng·h/mL and the Cmax – broadly, the peak of the concentration-time curve – is listed as 1450 ± 398 ng/mL.
Regarding `CC(=O)C[C@H](c1ccccc1)c1c(O)c2ccccc2oc1=O` [R-Warfarin, R-warfarin], the Cmax in “clinical [1]” (R-warfarin in plasma, single 7.5 mg oral racemic warfarin, with single 40 mg (2x20 mg) oral octreotide acetate, healthy volunteers, mean ± SD) came to 508 ± 97.0 ng/mL; in “clinical [1]” (R-warfarin in plasma, single 7.5 mg oral racemic warfarin, without oral octreotide (placebo), healthy volunteers, mean ± SD) it was 498 ± 82.0 ng/mL. Further, the “Cmax, least squares geometric mean, Test” value in “clinical [1]” (R-warfarin with oral octreotide 40 mg, 7.5 mg racemic warfarin) was 500.10. In addition, the “AUC(0-5) Geometric Mean Ratio, Estimate” value in the data set “clinical [1]” (setting [4]) is listed as 105.17%. In the data set “clinical [1]” (setting [4]), the “Cmax Geometric Mean Ratio, Estimate” value was 101.84%. In the data set “clinical [1]” (R-warfarin with placebo, 7.5 mg racemic warfarin), the “Cmax, least squares geometric mean, Reference” value is 491.04. The “AUC(0-5)” value in “clinical [1]” (R-warfarin, 7.5 mg racemic warfarin, with 40 mg oral octreotide acetate, mean ± SD) was 2012 ± 348 ng·h/mL; in “clinical [1]” (R-warfarin, 7.5 mg racemic warfarin, without oral octreotide (placebo), mean ± SD) it was 1907 ± 280 ng·h/mL. Further, the Tmax is reported as 2.00 (18) h in “clinical [1]” (R-warfarin, 7.5 mg racemic warfarin, with 40 mg oral octreotide acetate, median) and 1.00 (18) h in “clinical [1]” (R-warfarin, 7.5 mg racemic warfarin, without oral octreotide (placebo), median). The “effect of oral octreotide on the exposure to the probe drug (Cmax and AUC0-5)” value in the data set “clinical [1]” (healthy volunteers) is reported as “no significant effect”.
Take `NS(=O)(=O)c1cc2c(cc1Cl)NCNS2(=O)=O` [Hydrochlorothiazide, hydrochlorothiazide]: in “clinical [1]” (both, human, in vivo, po), the “AUC(0-5) Geometric Mean Ratio, Estimate” value is 81.82%; the “Cmax Geometric Mean Ratio, Estimate” value is 91.21%; the Tmax is 4 h. In addition, in the data set “clinical [1]” (setting [5]), the AUC(0-t) is 2030 ± 392 ng·h/mL and the Tmax came out at 2.75 h. The Cmax in the data set “clinical [1]” (both, human, in vivo, po, 100 mg, Cmax) amounted to 655 ± 128 ng/mL.
With `C#C[C@]1(O)CC[C@H]2[C@@H]3CCc4cc(O)ccc4[C@H]3CC[C@@]21C` [Ethinyl Estradiol, ethinyl estradiol], in “clinical [2]”, the “Cmax Geometric Mean Ratio, Estimate” value is given as 92.05% and the Tmax stood at 2.75 h. Further, in the data set “clinical [2]” (0.06 mg), the AUC(0-t) was 370 ± 80.2 pg·h/mL and the Tmax stood at 1.79 h. The molecule also showed a Cmax in the data set “clinical [2]” (0.06 mg, Cmax) of 0.113 ± 0.0287 ng/mL.
`CC(=O)C[C@@H](c1ccccc1)c1c(O)c2ccccc2oc1=O` [S-Warfarin, S-warfarin]: the maximum concentration (Cmax) is on record as 492 ± 114.2 ng/mL in the data set “clinical [1]” (S-warfarin in plasma, single 7.5 mg oral racemic warfarin, with single 40 mg (2x20 mg) oral octreotide acetate, healthy volunteers, mean ± SD) and 503 ± 91.2 ng/mL in the data set “clinical [1]” (S-warfarin in plasma, single 7.5 mg oral racemic warfarin, without oral octreotide (placebo), mean ± SD). In addition, the “Cmax, least squares geometric mean, Test” value in “clinical [1]” (S-warfarin with oral octreotide 40 mg, 7.5 mg racemic warfarin) amounted to 480.09. Also, the “AUC(0-5) Geometric Mean Ratio, Estimate” value in “clinical [1]” (setting [6]) is recorded as 102.38%. Besides, in “clinical [1]” (setting [6]), the “Cmax Geometric Mean Ratio, Estimate” value is given as 97.06%. In addition, the “Cmax, least squares geometric mean, Reference” value in “clinical [1]” (S-warfarin with placebo, 7.5 mg racemic warfarin) is listed as 494.64. For the same molecule, the “AUC(0-5)” value in “clinical [1]” (S-warfarin, 7.5 mg racemic warfarin, with 40 mg oral octreotide acetate, mean ± SD) was determined as 1894 ± 330 ng·h/mL; in “clinical [1]” (S-warfarin, 7.5 mg racemic warfarin, without oral octreotide (placebo), mean ± SD), 1846 ± 286 ng·h/mL. Moreover, the Tmax is on record as 1.50 (18) h in the data set “clinical [1]” (S-warfarin, 7.5 mg racemic warfarin, with 40 mg oral octreotide acetate, median) and 1.00 (18) h in “clinical [1]” (S-warfarin, 7.5 mg racemic warfarin, without oral octreotide (placebo), median). Also, the “effect of oral octreotide on the exposure to the probe drug (Cmax and AUC0-5)” value in “clinical [1]” (healthy volunteers) is recorded as “no significant effect”.
